Patent US20140135499A1, “METHODS FOR THE TOTAL CHEMICAL […] OF ENANTIOMERICALLY-PURE 7-(2'-[…]) ETHYL CAMPTOTHECIN” (BioNumerik Pharmaceuticals, Inc., priority 2012, published 2014)
Read-outs that look alike come from different tables or passages of the source.

Columns and labels:
[1] = system: angiogenesis (neovascularization); details: mice cornea model; dose levels of 210 mg/kg; cited from earlier work
[2] = system: Wild type human ovarian cancer cells (A2780/WT); assay: SRB cytotoxicity assay, inhibition of cell growth, A2780/WT; assay type: cell-based; details: 2 hour treatment, SRB assay at 5 days
Description: (§1) Wild type human ovarian cancer cells (A2780/WT) and doxorubicin resistant human ovarian cancer cells (A2780/DX5) were cultured in RPMI 1640 medium supplemented with 10% fetal bovine serum and 2 mM glutamine, and grown in a 37° C. incubator with 5% CO2. BNP1350 synthesized from camptothecin natural product (purchased from APAC) and BNP1350 synthesized via the Total Synthesis Scheme at BioNumerik Pharmaceuticals, Inc. were dissolved in DMSO for use in cytotoxicity experiments where inhibition of cell growth was measured using the SRB assay. Briefly, cells were seeded (450 cells/well in 100 μL volume) in a 96-well microtiter plates and allowed to attach for 24 hours prior to treatment with either natural product BNP1350 or total synthesis BNP1350 for 2 hours. Following this 2 hour treatment, BNP1350 was removed, the cells were washed with drug-free media (200 μL), and then drug-free media (200 μL) was added to the cells which were allowed to continue growing at 37° C. with 5% CO2 before the SRB assay was performed (total experimental time from the time of initial seeding was 5 days, during which 5 cell doublings occurred).

[3] = system: doxorubicin resistant human ovarian cancer cells (A2780/DX5); assay: SRB cytotoxicity assay, inhibition of cell growth, A2780/DX5; assay type: cell-based; details: for IC50: A2780/DX5, 2 hour treatment, SRB assay at 5 days; for Resistance Factor Ratio A2780/DX5 IC50/A2780WT IC50: ratio of average IC50 values
Description: as §1

[4] = system: panel of over twenty (20) human cancer cell lines; assay: In vitro studies on a panel of human cancer cell lines; assay type: cell-based
Description: In contrast, Karenitecin is a highly lipophilic camptothecin derivative characterized by substantial lactone stability and long plasma half-life. […] The free drug concentration in blood plasma is generally considered to be the pharmacologically active form in clinical pharmacology.

[5] = sodium hydroxide formulation, hydrolysed E-ring; cited from earlier work

CCc1c2c(nc3ccc(OC(=O)N4CCC(N5CCCCC5)CC4)cc13)-c1cc3c(c(=O)n1C2)COC(=O)[C@]3(O)CC [Irinotecan, 7-ethyl-10-[4-(1-piperidino)-1-piperidino]carbonyloxy camptothecin]
neovascularization [1]: significant reduction

CC[C@@]1(O)C(=O)OCc2c1cc1n(c2=O)Cc2c-1nc1ccccc1c2CC[Si](C)(C)C [Total Synthesis BNP1350, (4S)-4-ethyl-4-hydroxy-11-[2-(trimethylsilyl)ethyl]-1H-pyrano[3′:4′:6,7]indolizino[1,2-b]quinoline-3,14(4H,12H)-dione]
IC50 ([2]; Test 1, listed as Natural Product BNP1350, read-out: IC50 (nM) A2780/WT, Test 1): 6.7 nM
IC50 ([2]; Test 1, read-out: IC50 (nM) A2780/WT, Test 1): 6 nM
IC50 ([2]; Test 2, listed as Natural Product BNP1350, read-out: IC50 (nM) A2780/WT, Test 2): 5.4 nM
IC50 ([2]; Test 2, read-out: IC50 (nM) A2780/WT, Test 2): 6.8 nM
IC50 ([2]; average of Test 1 and Test 2, listed as Natural Product BNP1350, read-out: IC50 (nM) A2780/WT, Average): 6.1 nM
IC50 ([2]; average of Test 1 and Test 2, read-out: IC50 (nM) A2780/WT, Average): 6.4 nM
IC50 ([3]; Test 1, listed as Natural Product BNP1350, read-out: IC50 (nM) A2780/DX5, Test 1): 8.9 nM
IC50 ([3]; Test 1, read-out: IC50 (nM) A2780/DX5, Test 1): 11.9 nM
IC50 ([3]; Test 2, listed as Natural Product BNP1350, read-out: IC50 (nM) A2780/DX5, Test 2): 11.6 nM
IC50 ([3]; Test 2, read-out: IC50 (nM) A2780/DX5, Test 2): 11.7 nM
IC50 ([3]; average of Test 1 and Test 2, listed as Natural Product BNP1350, read-out: IC50 (nM) A2780/DX5, Average): 10.3 nM
IC50 ([3]; average of Test 1 and Test 2, read-out: IC50 (nM) A2780/DX5, Average): 11.8 nM
Resistance Factor Ratio A2780/DX5 IC50/A2780WT IC50 [3]: 1.8
Resistance Factor Ratio A2780/DX5 IC50/A2780WT IC50 ([3]; listed as Natural Product BNP1350): 1.7
antitumor potency compared with Topotecan or SN-38 [4]: significantly more potent

CC[C@@](O)(C(=O)O)c1cc2n(c(=O)c1CO)Cc1cc3ccccc3nc1-2 [carboxylate form of CPT]
anti-tumor potency relative to non-hydrolyzed lactone form of CPT [5]: one-tenth or less
